As usually defined, the melting point is the temperature, or range, at which the solid turns liquid.

Melting point data for 34 molecules are collected here from patent US6777440B2, “HIV integrase inhibitors” (Bristol-Myers Squibb Company, priority 2001, dated 2004).

Turning to `CC1(C)OC(=O)/C(=C/C(=O)N(Cc2ccccc2)OCc2ccccc2)O1`, the melting point is 107 to 108 °C.

Consider `CCON(Cc1ccc(F)cc1)C(=O)/C=C1\OC(C)(C)OC1=O`, for which the melting point fell in the range of 95 to 96 °C.

With `CON(CCCc1ccc(Cl)c(Cl)c1)C(=O)/C=C1\OC(C)(C)OC1=O`, the melting point lay within 105 to 106 °C.

`COc1ccc(CN(OC)C(=O)/C=C2\OC(C)(C)OC2=O)cc1` gave a melting point of 113 to 114 °C.

`CC(C)(C)OC(=O)CON(Cc1ccc(Cl)c(Cl)c1)C(=O)/C=C1\OC(C)(C)OC1=O` came in with a melting point of 127 to 129 °C.

As for `CON(CCCc1ccc(F)cc1)C(=O)/C=C(\O)C(=O)O`, the melting point is 86 °C (dec.).

`CON(Cc1ccc(C#N)cc1)C(=O)/C=C1\OC(C)(C)OC1=O` had a melting point of 148 to 149 °C.

Consider `CON(Cc1ccc(C)c(F)c1)C(=O)/C=C(\O)C(=O)O`, for which the melting point came out at 99 °C.

`CON(Cc1ccccc1OC(C)C)C(=O)/C=C1\OC(C)(C)OC1=O`: the melting point stood at 103 °C.

`CON(Cc1ccccc1C)C(=O)/C=C1\OC(C)(C)OC1=O` gave a melting point of 96 to 97 °C.

For `CON(Cc1ccc(F)cc1Cl)C(=O)/C=C1\OC(C)(C)OC1=O`, the melting point lay in the range of 127 to 128 °C.

For the molecule `CON(Cc1ccc(NC(C)=O)cc1)C(=O)/C=C1\OC(C)(C)OC1=O`, the melting point is 212 to 215 °C (dec.).

Take `CN(C)CCON(Cc1ccc(F)cc1)C(=O)/C=C1\OC(C)(C)OC1=O`: the melting point lay in the range of 95 to 96 °C.

On to `CON(CCCc1ccc(Cl)c(Cl)c1)C(=O)/C=C(\O)C(=O)O`, for which the melting point is 106 °C (dec.).

`CON(Cc1ccc(F)c(C)c1)C(=O)/C=C(\O)C(=O)O` yielded a melting point of 120 to 122 °C.

Turning to `CON(Cc1ccc(F)c(C)c1)C(=O)/C=C1\OC(C)(C)OC1=O`, the melting point is 107 to 108 °C.

`CC(C)CON(Cc1ccc(F)cc1)C(=O)/C=C1\OC(C)(C)OC1=O`: the melting point was in the range of 105 to 106 °C.

In turn, `CON(Cc1cccc(F)c1)C(=O)/C=C1\OC(C)(C)OC1=O` registered a melting point of 110 to 111 °C.

For `CON(Cc1ccc(C(F)(F)F)cc1)C(=O)/C=C(\O)C(=O)O`, the melting point lay in the range of 108 to 110 °C.

On to `CON(Cc1ccc(F)cc1C(F)(F)F)C(=O)/C=C1\OC(C)(C)OC1=O`, for which the melting point lay in the range of 129 to 130 °C.

For the molecule `CC(C)(C)OC(=O)CON(Cc1ccc(F)cc1)C(=O)/C=C1\OC(C)(C)OC1=O`, the melting point lay within 119 to 120 °C.

Turning to `CON(Cc1ccc(F)cc1Cl)C(=O)/C=C(\O)C(=O)O`, the melting point is 140 to 143 °C.

Consider `CC1(C)OC(=O)/C(=C/C(=O)N(Cc2ccc(Cl)c(Cl)c2)OCc2ccccc2)O1`, for which the melting point fell in the range of 113 to 116 °C.

`CON(Cc1ccc(C(=O)OC(C)(C)C)cc1)C(=O)/C=C1\OC(C)(C)OC1=O` came in with a melting point of 137 to 138 °C.

`CON(Cc1ccccc1F)C(=O)/C=C1\OC(C)(C)OC1=O` came in with a melting point of 109 to 111 °C.

Molecule `CON(Cc1ccc(C)c(F)c1)C(=O)/C=C1\OC(C)(C)OC1=O` registered a melting point of 131 °C.

Take `CON(Cc1ccc(F)cc1F)C(=O)/C=C1\OC(C)(C)OC1=O`: the melting point is 120 to 125 °C.

`CON(Cc1ccc(C(F)(F)F)cc1)C(=O)/C=C1\OC(C)(C)OC1=O` gave a melting point of 110 °C.

For the molecule `CON(Cc1ccc(C)cc1)C(=O)/C=C(\O)C(=O)O`, the melting point was 108 to 111 °C (dec.).

On to `CON(Cc1ccc(C(=O)O)cc1)C(=O)/C=C1\OC(C)(C)OC1=O`, for which the melting point was 217 to 219 °C.

As for `CON(Cc1ccccc1)C(=O)/C=C1\OC(C)(C)OC1=O`, the melting point lay within 109 to 110 °C.

Turning to `CON(Cc1ccc(C)cc1)C(=O)/C=C1\OC(C)(C)OC1=O`, the melting point was in the range of 108 to 110 °C.

With `CON(CCCc1ccc(F)cc1)C(=O)/C=C1\OC(C)(C)OC1=O`, the melting point was in the range of 90 to 91 °C.

In turn, `CON(Cc1ccc(Cl)cc1)C(=O)/C=C1\OC(C)(C)OC1=O` gave a melting point of 129 to 130 °C.
